Consider one molecule from patent EP0091181A2, “Aroyl pyrrolizine compounds, process for their preparation and pharmaceutical compositions containing them” (BEECHAM GROUP PLC, priority 1982, dated 1983).

A short description of one series: Gastric irritancy test. Type of series: in vivo, rats. The settings on record: rat, in vivo, po. The procedure: (§1) 2. Gastric Irritancy Test
(§2) Groups of OLAC Wistar female rats (130 - 160 g) were fasted overnight (18 hours) before receiving orally the compound of Example 1. 4 Hours later the stomachs were removed and inspected for the presence of erosion of the gastric mucosa.

The next series has as its system OLAC Wistar female rats. Put plainly: Gastric irritancy test. The settings on record: fasted rats, stomachs inspected 4 hours later. The format is in vivo. As to the method: as §1, §2
A further series deals with OLAC Wister male rats. Put plainly: Carrageenin test (rat paw oedema). Type of series: in vivo. The settings on record: for Paw volume ± s.e. / % Inhi-bition: paw volume 3 hours after carrageenin; for Paw volume ± s.e.: control 85.8 ± 9.4. The procedure: 1. Activity in the Carrageenin Test
(§3) Groups of 8 OLAC Wister male rats (140 - 170 g) received the compound of Example 1 orally 1 hour before 0.1 ml of 0.5% λ carrageenin injected into the right hind paw. Paw volumes were measured by mercury displacement 3 hours after carrageenin.

Series [1] is described as follows: Therapeutic ratio from the carrageenin test and the gastric irritancy test. The settings on record: from the two tests (gastric irritancy ED50 / carrageenin ED25). Type of series: in vivo, rats. The procedure: as §3, §2
From these two tests the therapeutic ratio for the compound of formula (EI) was 41.0.

In the case of `CC(=O)CC1CCn2c(C(=O)c3ccccc3)ccc21` (centres unmarked) [Example 1, 1-(5-Benzoyl-2-3-dihydro-1H-pyrrolazin-1-yl)-propan-2-one], in the series “Gastric irritancy test”, the TD50 at 4 h came out at 30.8 mg/kg. The figures for the “Proportion of rats with gas-tric erosions” value with OLAC Wistar female rats (oral dose 3.7 mg/kg), in the series on OLAC Wistar female rats (oral dose 11.2 mg/kg) and in the series on OLAC Wistar female rats (oral dose 33.6 mg/kg) were 0/8, 1/8 and 4/8, respectively. This molecule also returned an ED25 with OLAC Wister male rats (Rattus norvegicus, oral, carrageenin paw volume, rats) of 0.75 mg/kg. Besides, the “Paw volume ± s.e.” value in the series with OLAC Wister male rats (oral dose 0.1 mg/kg 1 hour before carrageenin) is 92.6 ± 4.6; with OLAC Wister male rats (oral dose 0.5 mg/kg 1 hour before carrageenin), 73.4 ± 7.8. Further, the “% Inhi-bition” value is recorded as -8.0% in the series on OLAC Wister male rats (oral dose 0.1 mg/kg), 14.4% in the series on OLAC Wister male rats (oral dose 0.5 mg/kg) and 47.4% in the series on OLAC Wister male rats (oral dose 2.5 mg/kg). The therapeutic ratio in series [1] came to 41.0.
